In US7012098B2, “Inhibitors of inducible nitric oxide synthase for chemoprevention and treatment of cancers” (Pharmacia Corporation, priority 2001, dated 2006):
Where a name gives a salt, the structure may show the parent alone. Read-outs that look alike come from different tables or passages of the source.

How the values were obtained:
NOS = assay: Colonic mucosal NOS activity after dietary treatment; type: in vivo, male F344 rats; conditions: 100 ppm in diet; AOM-treated rats, colonic mucosa; Mean ± SEM
Protocol: (§1) In Vivo Assay of Modulation of Colonic Mucosal Activities of NOS and COX isoforms by iNOS and COX-2 Inhibitors
(§2) NOS and iNOS activities were determined in colonic samples as prepared and described above. Conversion of L-arginine to L-citrulline was measured by a modification of an earlier described method (Rao et al, Carcinogenesis 21, supra; Ambs et al., Cancer Res. 58:334-41, 1998, which is herein incorporated by reference). The assay was carried out by adding 100 μg sample protein to 150 μl of assay buffer [50 mM HEPES, 1 mM DTT, 1 mM MgCl2, 5 mg/L pepstatin A, 0.1 mM PMSF, and 3 mg/L aprotinin, pH 7.4] containing 70 μM arginine, 250,000 dpm L-[^3H]-arginine, 2 mM NADPH, 5μM tetrahydro biopterin, 5 μM flavin adenine dinucleotide, and 0.5 mM CaCi2 to measure total NOS activity, or 1 mM EGTA (without calcium) to determine Ca+^2-independent iNOS activity. After 30 min at 37° C., the reaction was stopped with 100 μl of 1M trichloroacetic acid. Then the samples were adjusted to pH 4.6 by adding 500 μl of 20 mM HEPES and loaded on to Dowex AG 50W-X8 resin columns. L-[^3H]-citrulline was eluted and separated on TLC. Radioactivity was counted by a BioScan Radiomatic detector. Results are expressed as pmol L-[^3H]-citrulline released/mg protein/min.

iNOS = iNOS (Rattus norvegicus, UniProt Q06518); assay: Colonic mucosal iNOS activity after dietary treatment; type: in vivo, male F344 rats
Protocol: as §1, §2

COX-1 = molecular target: T1, COX-1 (Rattus norvegicus, UniProt Q63921); assay: Colonic mucosal COX-1 activity after dietary treatment; type: in vivo, male F344 rats; conditions: 100 ppm in diet; AOM-treated rats, colonic mucosa; Mean ± SEM
T1 sequence (Q63921 27-602): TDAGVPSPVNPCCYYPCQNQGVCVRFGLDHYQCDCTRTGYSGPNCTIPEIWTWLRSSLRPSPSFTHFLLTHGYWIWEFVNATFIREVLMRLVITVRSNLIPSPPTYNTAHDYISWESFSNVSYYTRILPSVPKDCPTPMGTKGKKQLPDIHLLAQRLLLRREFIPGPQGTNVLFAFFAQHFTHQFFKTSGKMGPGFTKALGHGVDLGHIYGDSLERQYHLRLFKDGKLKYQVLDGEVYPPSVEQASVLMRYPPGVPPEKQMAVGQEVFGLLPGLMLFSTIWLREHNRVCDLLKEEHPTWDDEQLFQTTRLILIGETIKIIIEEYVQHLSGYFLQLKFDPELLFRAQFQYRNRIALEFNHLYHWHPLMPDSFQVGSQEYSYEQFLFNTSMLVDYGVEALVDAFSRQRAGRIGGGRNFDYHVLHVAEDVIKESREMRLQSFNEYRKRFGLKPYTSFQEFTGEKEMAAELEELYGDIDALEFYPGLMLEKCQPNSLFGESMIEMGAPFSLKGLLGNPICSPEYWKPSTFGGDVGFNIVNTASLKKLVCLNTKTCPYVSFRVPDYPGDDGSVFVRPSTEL
Protocol: (§3) For determining COX-2 activity, proteins were preincubated with 50 μM of aspirin to block the activity of COX-1. After incubation at 37° C. for 15 min, the reaction was terminated by adding 40 μl of 0.2 M HCl. The COX-mediated metabolites of arachidonic acid were extracted with ethyl acetate (3×0.5 ml). The combined extracts were evaporated to dryness under N2, redissolved in chloroform, and subjected to thin layer chromatography on precoated TLC plastic plates (silica G 60, 20×20 cm, layer thickness 150 μm). […] The metabolites of ^14C-AA corresponding to PGE2, PGF2α, PGD2, 6-Keto PGF1α, and TXB2 were detected by their comigration (Rf-values) with authentic standards. The area of each metabolite was determined in a Bioscan System 200 image scanning counter (Bioscan Inc., Washington, D.C.) equipped with β-detector.

COX-2 = molecular target: T2, COX-2 (Rattus norvegicus, UniProt P35355); assay: Colonic mucosal COX-2 activity after dietary treatment; type: in vivo, male F344 rats; conditions: 100 ppm in diet; AOM-treated rats, colonic mucosa; Mean ± SEM
T2 sequence (P35355 18-604): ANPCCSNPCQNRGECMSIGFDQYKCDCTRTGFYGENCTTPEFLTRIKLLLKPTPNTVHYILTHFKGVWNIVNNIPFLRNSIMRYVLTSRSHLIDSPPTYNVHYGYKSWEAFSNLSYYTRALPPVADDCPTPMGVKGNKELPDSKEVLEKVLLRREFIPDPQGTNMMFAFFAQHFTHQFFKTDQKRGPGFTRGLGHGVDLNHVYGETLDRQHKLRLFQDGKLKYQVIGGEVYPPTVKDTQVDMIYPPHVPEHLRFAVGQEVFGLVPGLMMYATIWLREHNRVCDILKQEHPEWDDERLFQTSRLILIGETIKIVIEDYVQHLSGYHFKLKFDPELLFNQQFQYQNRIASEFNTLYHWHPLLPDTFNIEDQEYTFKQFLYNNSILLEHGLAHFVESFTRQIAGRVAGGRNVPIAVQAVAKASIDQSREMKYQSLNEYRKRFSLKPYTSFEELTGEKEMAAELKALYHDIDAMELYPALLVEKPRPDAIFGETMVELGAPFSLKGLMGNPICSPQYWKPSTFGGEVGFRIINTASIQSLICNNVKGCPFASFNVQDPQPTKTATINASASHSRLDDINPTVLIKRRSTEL
Protocol: as §3

in vivo = conditions: male, F344, rat, plasma, oral
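Throughout, for Plasma level of compound XI: plasma drug concentrations quantified by liquid chromatography with tandem mass spectrometry following solid phase extraction, reported as mean ± SEM.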
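Throughout, for Plasma level: plasma drug concentrations quantified by liquid chromatography with tandem mass spectrometry following solid phase extraction, reported as mean ± SEM.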
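Throughout, for absorption: plasma drug concentrations quantified by liquid chromatography with tandem mass spectrometry following solid phase extraction, reported as mean ± SEM.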

In the case of `CC(=N)NCCCC[C@H](N)C(=O)Nc1nnn[nH]1` [compound XI, 2S-amino-6-[(1-iminoethyl)amino]-N-(1H-tetrazol-5-yl)hexanamide, hydrate, dihydrochloride], the “NOS Activity, NOS” value (NOS) is reported as 9.8 ± 1.5 pmoles [^3H]-citrulline/mg pro, the “suppression of AOM-induced colonic mucosal iNOS activity” value (iNOS; 100 ppm) is reported as roughly 37% and the “NOS Activity, iNOS” value (iNOS; 100 ppm in diet, AOM-treated rats, colonic mucosa, Mean ± SEM) is reported as 1.6 ± 0.2 pmoles [^3H]-citrulline/mg pro. The “COX-Activity, COX-1” value (COX-1) was 11.3 ± 1.4 pmoles [^14C]-AA metabolized/m, the “COX-Activity, COX-2” value (COX-2) was 1.8 ± 0.3 pmoles [^14C]-AA metabolized/m and the concentration at 1 week on diet (in vivo; 10 ppm in diet) was 461 ng/mL. It also gave a concentration at 5 weeks on diet (in vivo; 10 ppm in diet) of 341 ng/mL, a concentration at 9 weeks on diet (in vivo; 10 ppm in diet) of 254 ng/mL and a concentration at 1 week on diet (in vivo; 20 ppm in diet) of 1320 ± 71 ng/mL. The concentration at 5 weeks on diet (in vivo; 20 ppm in diet) was 821 ± 32 ng/mL, the concentration at 9 weeks on diet (in vivo; 20 ppm in diet) was 742 ± 7 ng/mL and the concentration at 1 week on diet (in vivo; 100 ppm in diet) was 4310 ng/mL. For the same compound, the concentration at 5 weeks on diet (in vivo; 100 ppm in diet) was 2810 ng/mL, the concentration at 9 weeks on diet (in vivo; 100 ppm in diet) was 2640 ng/mL and the absorption (3 dose levels (10, 30, 100 ppm in diet)) was “Dose-dependant”. For the same compound, the Plasma level (10 ppm in diet, Early, One week on diet, Mean ± SEM, hydrate, dihydrochloride) was 461 ± 15 ηg/mI, the Plasma level (10 ppm in diet, Late, 9 weeks on diet, Mean ± SEM, hydrate, dihydrochloride) was 254 ± 13 ηg/mI and the Plasma level (10 ppm in diet, Mid, 5 weeks on diet, Mean ± SEM, hydrate, dihydrochloride) was 341 ± 9.7 ηg/mI. For the same compound, the “Plasma level of compound XI” value (30 ppm compound XI + 500 ppm Celecoxib in diet, Early, One week on diet) was 1240 ± 37 + ηg/mI, the “Plasma level of compound XI” value (30 ppm compound XI + 500 ppm Celecoxib in diet, Late, 9 weeks on diet) was 788 ± 63 ηg/mI and the “Plasma level of compound XI” value (30 ppm compound XI + 500 ppm Celecoxib in diet, Mid, 5 weeks on diet) was 901 ± 5.0 + ηg/mI. The Plasma level (30 ppm in diet, first of 3 time points) was 1315 ηg/ml, the Plasma level (30 ppm in diet, second of 3 time points) was 821 ηg/ml and the Plasma level (30 ppm in diet, third of 3 time points) was 742 ηg/ml. The “Plasma level of compound XI” value (100 ppm compound XI + 500 ppm Celecoxib in diet, Early, One week on diet) was 4370 ± 112 + ηg/mI, the “Plasma level of compound XI” value (100 ppm compound XI + 500 ppm Celecoxib in diet, Late, 9 weeks on diet) was 2477 ± 204 + ηg/mI and the “Plasma level of compound XI” value (100 ppm compound XI + 500 ppm Celecoxib in diet, Mid, 5 weeks on diet) was 3096 ± 344 + ηg/mI. For the same compound, the Plasma level (100 ppm in diet, Early, One week on diet, Mean ± SEM, hydrate, dihydrochloride) was 4306 ± 146 ηg/mI, the Plasma level (100 ppm in diet, Late, 9 weeks on diet, Mean ± SEM, hydrate, dihydrochloride) was 2639 ± 268 ηg/mI and the Plasma level (100 ppm in diet, Mid, 5 weeks on diet, Mean ± SEM, hydrate, dihydrochloride) was 2811 ± 82 ηg/mI.
